According to PMC1456331 (Nucleic Acids Research, 2006):

How the values were obtained:
[1] = test system: Phoenix Eco cells
[2] = estimated; 5 µM oligomer, 37°C, DMEM/10% FBS; denaturing gel, densitometry
[3] = test system: Phoenix Eco cells; assay: Cellular uptake of fluorescein-labeled oligomers; assay type: cell-based
[4] = test system: Phoenix Eco cells; assay: Live-cell confocal microscopy, intracellular localization; assay type: cell-based

Row | Molecule | cell viability [1] | half-life [2] [h] | time of maximum uptake ([3]; in the presence of LFA) [h] | fluorescence in treated cells (in words) ([3]; in the presence of Lipofectamine-2000 (LFA), oligomer or its duplex with CT-ODN, after 4 h already) | intracellular distribution (in words) [4]
1 | CCN(CC)CCCC(C)Nc1ccnc2cc(Cl)ccc12 (centres unmarked) [chloroquine] | 80–85% | – | – | – | –
2 | pHypNA TCACTCAACACTCAC-Flu: fluorescein-labeled trans-L pHypNA oligomer, sequence TCACTCAACACTCAC-Flu (pHypNA backbone; fluorescein) | – | ~72 | 20 to 24 | high level of fluorescence | evenly distributed in the cytoplasm with preferential staining of the nucleus
